What was measured:
Rattus norvegicus = species: Rattus norvegicus; test: Neuroprotective actvity against 6-OHDA-induced rat Parkinson's disease model assessed as improved locomotory actvity by open-field test; type: functional, organism-based; conditions: dose 5-10 mg/kg
[1] = Cardiotoxicity in Beagle dog at 30 to 300 mg/kg, po by telemetry analysis; type: toxicity, organism-based, Canis lupus familiaris; conditions: in vivo, dose 30-300 mg/kg

## CC(=O)N1CCc2nc(N3CCC(Oc4ccc(F)cc4F)CC3)c(N[C@@H]3CCOC3)nc2C1
Rattus norvegicus
  Activity: Dose-dependent effect
[1]
  Activity: Non-Toxic

Source: ChEMBL document CHEMBL4742392, “Tetrahydropyridopyrazine modulators of GPR6” (2019)
